{"source": "patent US20040063703A1", "about": "“Synergistic pesticide mixtures for the control of animal pests” (priority 2001, published 2004)", "key": {"[1]": {"system": "resistant caterpillars of the diamondback moth (Plutella xylostella)", "experiment": "Plutella test (resistant) (kill rate, Colby)", "format": "in vivo", "conditions": "resistant strain", "procedure": "Plutella Test (Resistant)\n(§1) The kill rates determined are calculated using Colby's formula (see sheet 1)."}, "[2]": {"system": "normally sensitive caterpillars of the diamondback moth (Plutella xylostella)", "experiment": "Plutella test (normally sensitive) (kill rate, Colby)", "format": "in vivo", "conditions": "normally sensitive strain", "procedure": "Plutella Test (Normally Sensitive)\nas §1"}, "[3]": {"system": "larvae of the mustard beetle (Phaedon cochleariae)", "experiment": "Phaedon larvae test (kill rate, Colby)", "format": "in vivo", "conditions": "cabbage leaf dip", "procedure": "as §1"}, "[4]": {"system": "caterpillars of the armyworm (Spodoptera frugiperda)", "experiment": "Spodoptera frugiperda test (LC50, Carpenter)", "format": "in vivo", "conditions": "found, cabbage leaf dip", "from_the_text": "(§2) Spodoptera frugiperda Test"}, "[5]": {"system": "caterpillars of the diamondback moth (Plutella xylostella, sensitive strain)", "experiment": "Plutella test, sensitive strain (LC95, Carpenter)", "format": "in vivo", "conditions": "found", "from_the_text": "Plutella Test, Sensitive Strain"}, "[6]": {"system": "caterpillars of the diamondback moth (Plutella xylostella, resistant strain)", "experiment": "Plutella test, resistant strain (LC95, Carpenter)", "format": "in vivo", "conditions": "found", "from_the_text": "Plutella Test, Resistant Strain"}, "[7]": {"system": "larvae of the mustard beetle (Phaedon cochleariae)", "experiment": "Phaedon larvae test (LC50, Carpenter)", "conditions": "found, cabbage leaf dip"}, "[8]": {"system": "caterpillars of the armyworm (Spodoptera frugiperda)", "experiment": "Spodoptera frugiperda test (kill rate, Colby)", "format": "in vivo", "conditions": "cabbage leaf dip", "procedure": "as §2, §1"}, "[9]": {"system": "Heliothis virescens caterpillars", "experiment": "Heliothis virescens test (kill rate, Colby)", "format": "in vivo", "conditions": "soya bean shoot dip", "procedure": "as §1"}}}
{"compound": "N#C/N=C1\\SCCN1Cc1ccc(Cl)nc1", "note": "[thiacloprid, (Z)-3-(6-chloro-3-pyridylmethyl)-1,3-thiazolidin-2-ylidenecyanamide]", "values": [{"measurement": "Kill rate in % after 6 days", "setting": "[1]; 3 ppm", "result": 0, "unit": "%"}, {"measurement": "Kill rate in % after 6 days", "setting": "[2]; 3 ppm", "result": 0, "unit": "%"}, {"measurement": "Kill rate in % after 6 days", "setting": "[3]; 3 ppm", "result": 0, "unit": "%"}]}
{"compound": "CN/C(=N\\[N+](=O)[O-])NCc1cnc(Cl)s1", "note": "[clothianidin (X), (E)-1-(2-chloro-1,3-thiazol-5-yl-methyl)-3-methyl-2-nitroguanidine]", "values": [{"measurement": "LC50 after 6 days", "setting": "[4]", "result": 0.662, "unit": "ppm"}, {"measurement": "LC95 after 6 days", "setting": "[5]", "result": 26.037, "unit": "ppm"}, {"measurement": "LC95 after 6 days", "setting": "[6]", "result": 50.722, "unit": "ppm"}, {"measurement": "LC50 after 6 days", "setting": "[7]", "result": 2.372, "unit": "ppm"}]}
{"compound": "O=[N+]([O-])/N=C1\\NCCN1Cc1ccc(Cl)nc1", "note": "[imidacloprid, 1-[(6-chloro-3-pyridinyl)methyl]-N-nitro-2-imidazolidineimine]", "values": [{"measurement": "Kill rate in % after 6 days", "setting": "[8]; 0.6 ppm", "result": 0, "unit": "%"}, {"measurement": "Kill rate in % after 3 days", "setting": "[9]; 3 ppm", "result": 15, "unit": "%"}, {"measurement": "Kill rate in % after 3 days", "setting": "[3]; 3 ppm", "result": 0, "unit": "%"}]}
{"compound": "COC(=O)N(C(=O)N1CO[C@@]2(C(=O)OC)Cc3cc(Cl)ccc3C2=N1)c1ccc(OC(F)(F)F)cc1", "note": "[indoxacarb]", "values": [{"measurement": "Kill rate in % after 6 days", "setting": "[1]; 0.1 ppm", "result": 55, "unit": "%"}, {"measurement": "Kill rate in % after 6 days", "setting": "[8]; 0.02 ppm", "result": 0, "unit": "%"}, {"measurement": "Kill rate in % after 6 days", "setting": "[2]; 0.1 ppm", "result": 65, "unit": "%"}, {"measurement": "LC50 after 6 days", "setting": "[4]", "result": 0.136, "unit": "ppm"}, {"measurement": "LC95 after 6 days", "setting": "[5]", "result": 0.531, "unit": "ppm"}, {"measurement": "Kill rate in % after 3 days", "setting": "[9]; 0.1 ppm", "result": 0, "unit": "%"}, {"measurement": "Kill rate in % after 3 days", "setting": "[3]; 0.5 ppm", "result": 20, "unit": "%"}, {"measurement": "Kill rate in % after 6 days", "setting": "[3]; 0.5 ppm", "result": 45, "unit": "%"}, {"measurement": "LC95 after 6 days", "setting": "[6]", "result": 0.234, "unit": "ppm"}, {"measurement": "LC50 after 6 days", "setting": "[7]", "result": 0.1, "unit": "ppm"}]}
